# Assay results reported in PubChem BioAssay AID1259407 (Chemical Carcinogenesis Research Information System (CCRIS), 2018).
# The source made the active and inactive calls. The rule behind the calls is not given here.
# System: CCRIS mutagenicity, Ames/micronucleus/aberration tests
# Test: CCRIS mutagenicity studies
# [1] = Test System: AMES SALMONELLA TYPHIMURIUM, Strain/Indicator: TA98, Metabolic Activation: NONE, Method: STANDARD PLATE
# [2] = Test System: AMES SALMONELLA TYPHIMURIUM, Strain/Indicator: TA98, Metabolic Activation: RAT, LIVER, S-9, AROCLOR 1254, Method: STANDARD PLATE
# [3] = Test System: AMES SALMONELLA TYPHIMURIUM, Strain/Indicator: TA100, Metabolic Activation: NONE, Method: STANDARD PLATE
# [4] = Test System: AMES SALMONELLA TYPHIMURIUM, Strain/Indicator: TA100, Metabolic Activation: RAT, LIVER, S-9, AROCLOR 1254, Method: STANDARD PLATE
structure (smiles),measurement,setting,value
Cc1ccc2nc(-c3ccc(N)cc3)sc2c1,mutagenic call,"Test System: AMES SALMONELLA TYPHIMURIUM, Strain/Indicator: 1537, Metabolic Activation: NONE, Method: STANDARD PLATE",inactive; negative
same,mutagenic call,"Test System: AMES SALMONELLA TYPHIMURIUM, Strain/Indicator: TA98, Metabolic Activation: HAMSTER, LIVER, S-9, AROCLOR 1254, Method: STANDARD PLATE",active; positive
same,mutagenic call,[1],inactive; negative
same,mutagenic call,[2],active; positive
same,mutagenic call,"Test System: AMES SALMONELLA TYPHIMURIUM, Strain/Indicator: TA100, Metabolic Activation: HAMSTER, LIVER, S-9, AROCLOR 1254, Method: STANDARD PLATE",active; positive
same,mutagenic call,[3],inactive; negative
same,mutagenic call,[4],active; positive
same,mutagenic call,"Test System: AMES SALMONELLA TYPHIMURIUM, Strain/Indicator: TA1535, Metabolic Activation: HAMSTER, LIVER, S-9, AROCLOR 1254, Method: STANDARD PLATE",inactive; negative
same,mutagenic call,"Test System: AMES SALMONELLA TYPHIMURIUM, Strain/Indicator: TA1535, Metabolic Activation: RAT, LIVER, S-9, AROCLOR 1254, Method: STANDARD PLATE",inactive; negative
same,mutagenic call,"Test System: AMES SALMONELLA TYPHIMURIUM, Strain/Indicator: TA1537, Metabolic Activation: HAMSTER, LIVER, S-9, AROCLOR 1254, Method: STANDARD PLATE",active; positive
same,mutagenic call,"Test System: AMES SALMONELLA TYPHIMURIUM, Strain/Indicator: TA1537, Metabolic Activation: RAT, LIVER, S-9, AROCLOR 1254, Method: STANDARD PLATE",active; positive
same,mutagenic call,"Test System: AMES SALMONELLA TYPHIMURIUM, Strain/Indicator: TA1538, Metabolic Activation: HAMSTER, LIVER, S-9, AROCLOR 1254, Method: STANDARD PLATE",active; positive
same,mutagenic call,"Test System: AMES SALMONELLA TYPHIMURIUM, Strain/Indicator: TA1538, Metabolic Activation: NONE, Method: STANDARD PLATE",inactive; negative
same,mutagenic call,"Test System: AMES SALMONELLA TYPHIMURIUM, Strain/Indicator: TA1538, Metabolic Activation: RAT, LIVER, S-9, AROCLOR 1254, Method: STANDARD PLATE",active; positive
same,mutagenic call,"Test System: MOUSE LYMPHOMA, Strain/Indicator: L5178Y (TK+/TK-), Metabolic Activation: NONE, Method: SUSPENSION/PLATE",active; positive. reevaluation of results: positive
same,mutagenic call,"Test System: MOUSE LYMPHOMA, Strain/Indicator: L5178Y (TK+/TK-), Metabolic Activation: RAT, LIVER, S-9, AROCLOR 1254, Method: SUSPENSION/PLATE",active; positive. reevaluation of results: positive
c1ccc2c(c1)-c1ccccc1C1NC21 (stereo unspecified),mutagenic call,[1],active; positive
same,mutagenic call,"Test System: AMES SALMONELLA TYPHIMURIUM, Strain/Indicator: TA1537, Metabolic Activation: NONE, Method: STANDARD PLATE",active; positive
same,mutagenic call,"Test System: CHINESE HAMSTER V-79, Strain/Indicator: V-79/6-THIOGUANINE, Metabolic Activation: NONE, Method: STANDARD PLATE",active; positive
Nc1ccc(/C=C/c2cccc(Cl)c2)cc1,mutagenic call,"Test System: AMES SALMONELLA TYPHIMURIUM, Strain/Indicator: TA98(1,8-DNP6), Metabolic Activation: NONE, Method: STANDARD PLATE",inactive; negative
same,mutagenic call,"Test System: AMES SALMONELLA TYPHIMURIUM, Strain/Indicator: TA98(1,8-DNP6), Metabolic Activation: S-9, Method: STANDARD PLATE",active; positive
same,mutagenic call,[1],active; positive
same,mutagenic call,"Test System: AMES SALMONELLA TYPHIMURIUM, Strain/Indicator: TA98, Metabolic Activation: S-9, Method: STANDARD PLATE",active; positive
same,mutagenic call,[3],inactive; negative
same,mutagenic call,"Test System: AMES SALMONELLA TYPHIMURIUM, Strain/Indicator: TA100, Metabolic Activation: S-9, Method: STANDARD PLATE",active; positive
FC(F)(Br)C(F)(F)I,mutagenic call,"Test System: Ames Salmonella typhimurium, Strain/Indicator: TA98, Metabolic Activation: None, Method: Preincubation",inactive; negative
same,mutagenic call,"Test System: Ames Salmonella typhimurium, Strain/Indicator: TA98, Metabolic Activation: Rat, Liver, S9, Sodium phenobarbital and 5,6-benzoflavone (10%), Method: Preincubation",inactive; negative
same,mutagenic call,"Test System: Ames Salmonella typhimurium, Strain/Indicator: TA100, Metabolic Activation: None, Method: Preincubation",inactive; negative
same,mutagenic call,"Test System: Ames Salmonella typhimurium, Strain/Indicator: TA100, Metabolic Activation: Rat, Liver, S9, Sodium phenobarbital and 5,6-benzoflavone (10%), Method: Preincubation",inactive; negative
same,mutagenic call,"Test System: Ames Salmonella typhimurium, Strain/Indicator: TA1535, Metabolic Activation: None, Method: Preincubation",active; positive
same,mutagenic call,"Test System: Ames Salmonella typhimurium, Strain/Indicator: TA1535, Metabolic Activation: Rat, Liver, S9, Sodium phenobarbital and 5,6-benzoflavone (10%), Method: Preincubation",active; positive
same,mutagenic call,"Test System: Ames Salmonella typhimurium, Strain/Indicator: TA1537, Metabolic Activation: None, Method: Preincubation",inactive; negative
same,mutagenic call,"Test System: Ames Salmonella typhimurium, Strain/Indicator: TA1537, Metabolic Activation: Rat, Liver, S9, Sodium phenobarbital and 5,6-benzoflavone (10%), Method: Preincubation",inactive; negative
same,mutagenic call,"Test System: E. coli, Strain/Indicator: WP2uvrA/pKM101, Metabolic Activation: None, Method: Preincubation",active; positive
same,mutagenic call,"Test System: E. coli, Strain/Indicator: WP2uvrA/pKM101, Metabolic Activation: Rat, Liver, S9, Sodium phenobarbital and 5,6-benzoflavone (10%), Method: Preincubation",active; positive
CC(C)(c1ccc(OCC2CO2)cc1)c1ccc(OCC2CO2)cc1 (stereo unspecified),mutagenic call,"Test System: AMES SALMONELLA TYPHIMURIUM, Strain/Indicator: TA100, Metabolic Activation: HAMSTER, LIVER, S-9, AROCLOR 1254 (10%), Method: PREINCUBATION",active; positive
same,mutagenic call,"Test System: AMES SALMONELLA TYPHIMURIUM, Strain/Indicator: TA100, Metabolic Activation: NONE, Method: PREINCUBATION",active; positive
same,mutagenic call,[3],active; positive
same,mutagenic call,"Test System: AMES SALMONELLA TYPHIMURIUM, Strain/Indicator: TA100, Metabolic Activation: RAT LIVER S-9, PHENOBARBITAL/METHYLCHOLANTHRENE (2 OR 10%), Method: STANDARD PLATE",active; positive
same,mutagenic call,"Test System: AMES SALMONELLA TYPHIMURIUM, Strain/Indicator: TA100, Metabolic Activation: RAT LIVER S-9, PHENOBARBITAL/METHYLCHOLANTHRENE (4%), Method: STANDARD PLATE",active; positive
same,mutagenic call,"Test System: AMES SALMONELLA TYPHIMURIUM, Strain/Indicator: TA100, Metabolic Activation: RAT, LIVER, S-9, AROCLOR 1254 (10%), Method: PREINCUBATION",active; positive
same,mutagenic call,"Test System: AMES SALMONELLA TYPHIMURIUM, Strain/Indicator: TA1535, Metabolic Activation: HAMSTER, LIVER, S-9, AROCLOR 1254 (10%), Method: PREINCUBATION",active; positive
same,mutagenic call,"Test System: AMES SALMONELLA TYPHIMURIUM, Strain/Indicator: TA1535, Metabolic Activation: NONE, Method: PREINCUBATION",active; positive
same,mutagenic call,"Test System: AMES SALMONELLA TYPHIMURIUM, Strain/Indicator: TA1535, Metabolic Activation: NONE, Method: STANDARD PLATE",inactive; negative
same,mutagenic call,"Test System: AMES SALMONELLA TYPHIMURIUM, Strain/Indicator: TA1535, Metabolic Activation: RAT LIVER S-9, PHENOBARBITAL/METHYLCHOLANTHRENE (4, 10 OR 20%), Method: STANDARD PLATE",active; positive
same,mutagenic call,"Test System: AMES SALMONELLA TYPHIMURIUM, Strain/Indicator: TA1535, Metabolic Activation: RAT, LIVER, S-9, AROCLOR 1254 (10%), Method: PREINCUBATION",active; positive
same,mutagenic call,"Test System: E. coli, Strain/Indicator: IC3327, Metabolic Activation: None, Method: Standard Plate",active; positive
same,mutagenic call,"Test System: E. coli, Strain/Indicator: IC3327, Metabolic Activation: Rat, Liver, S-9, Phenobarbital-methylcholanthrene mix (4%) + 4 mM NADP, Method: Standard Plate",active; positive
same,mutagenic call,"Test System: E. coli, Strain/Indicator: IC3327, Metabolic Activation: Rat, Liver, S-9, Phenobarbital-methylcholanthrene mix (4%), Method: Standard Plate",active; positive
same,mutagenic call,"Test System: E. coli, Strain/Indicator: WP2 UVRA, Metabolic Activation: None, Method: Standard Plate",active; positive
same,mutagenic call,"Test System: E. coli, Strain/Indicator: WP2 UVRA, Metabolic Activation: Rat, Liver, S-9, Phenobarbital-methylcholanthrene mix (4%) + 4 mM NADP, Method: Standard Plate",inactive; negative (authors report as positive based on slope but revertants <2x backgroun
same,mutagenic call,"Test System: E. coli, Strain/Indicator: WP2 UVRA, Metabolic Activation: Rat, Liver, S-9, Phenobarbital-methylcholanthrene mix (4%), Method: Standard Plate",active; positive
Nc1cc(Cl)c(Cl)c(Cl)c1,mutagenic call,[1],inactive; negative
same,mutagenic call,[2],inactive; negative
same,mutagenic call,[3],inactive; negative
same,mutagenic call,[4],inactive; negative
